# Laboratory results reported in patent US8927560B2, “4-Aza-2, 3-didehydropodophyllotoxin compounds and process for the preparation thereof” (Council of Scientific & Industrial Research, priority 2010, dated 2015).
# Assays:
# [1] = tested on: Zr-75-1; experiment: SRB in vitro cytotoxicity assay, Zr-75-1 breast cancer cells; type: cell-based; settings: Homo sapiens, 48 h drug exposure, read-out: In vitro anticancer activity GI50, Breast Zr-75-1
# From the text: (§1) Compounds 4a-4z and 4aa-4ae have been evaluated for their in vitro cytotoxicity in selected human cancer cell lines i.e., colon (Colo205), lung (Hop-62, A549), cervix (SiHa), prostate (PC3), oral (KB, DWD, Gurav), Ovarian (A-2780) and breast (MCF7, Zr-75-1) origin by employing the sulforhodamine B (SRB) assay method (Skehn, P.; Storeng, R.; Scudiero, A.; Monks, J.; MeMohan, D.; Vistica, D.; Jonathan, T. W.; Bokesch, H.; Kenney, S.; Boyd M. R. J. Natl. Cancer Inst. 1990, 82, 1107).
# (§2) The synthesized compounds have been evaluated for their in vitro cytotoxicity in human cancer cell lines. A protocol of 48 h continuous drug exposure has been used and a sulforhodamine B (SRB) protein assay has been used to estimate cell viability or growth. The cell lines were grown in DMEM medium containing 10% fetal bovine serum and 2 mM L-glutamine and were inoculated into 96 well microtiter plates in […] at plating densities depending on the doubling time of individual cell lines. The microliter plates were incubated at 37_C, 5% CO2, 95% air, and 100% relative humidity for 24 h prior to addition of experimental drugs. Aliquots of […] of the drug dilutions were added to the appropriate microliter wells already containing […] of cells, suiting in the required final drug concentrations. For each compound four concentrations (0.1, 1, 10 and 100 uM) were evaluated and each was done in triplicate wells. Plates were incubated further for 48 h and assay was terminated by the addition of […] of cold trichloro acetic acid (TCA) (final concentration, 10% TCA) and incubated for 60 min at 4_C. The plates were washed five times with tap water and airdried. Sulforhodamine B (SRB) solution ([…]) at 0.4% (w/v) in 1% acetic acid was added to each of the cells, and plates were incubated for 20 min at room temperature. The residual dye was removed by washing five times with 1% acetic acid. The plates were airdried. Bound stain was subsequently eluted with 10 mM trizma base, and the absorbance was read on an ELISA plate reader at a wavelength of 540 nm with 690 nm reference wavelengths. Percent growth was calculated on a plate by plate basis for test wells relative to control wells. The above determinations were repeated three times. Percentage growth was expressed as the (ratio of average absorbance of the test well to the average absorbance of the control wells)*100. Growth inhibition of 50% (GI50) was calculated from [(Ti−Tz)/(C−Tz)]*100 ¼ 50, which is the drug concentration resulting in a 50% reduction in the net protein increase (as measured by SRB staining) in control cells during the drug incubation. Where, Tz ¼ Optical density at time zero, OD of control ¼ C, and OD of test growth in the presence of drug ¼ Ti.
# [2] = tested on: A-549; experiment: SRB in vitro cytotoxicity assay, A-549 lung cancer cells; type: cell-based; settings: Homo sapiens, A549, 48 h drug exposure, read-out: In vitro anticancer activity GI50, Lung A-549
# From the text: as §1, §2
# [3] = tested on: KB; experiment: SRB in vitro cytotoxicity assay, KB oral cancer cells; type: cell-based; settings: Homo sapiens, 48 h drug exposure, read-out: In vitro anticancer activity GI50, Oral KB
# From the text: as §1, §2
# [4] = tested on: Colo 205; experiment: SRB in vitro cytotoxicity assay, Colo 205 colon cancer cells; type: cell-based; settings: Homo sapiens, 48 h drug exposure, read-out: In vitro anticancer activity GI50, Colon Colo 205
# From the text: as §1, §2
# [5] = tested on: DWD; experiment: SRB in vitro cytotoxicity assay, DWD oral cancer cells; type: cell-based; settings: Homo sapiens, 48 h drug exposure, read-out: In vitro anticancer activity GI50, Oral DWD
# From the text: as §1, §2
# [6] = tested on: A-2780; experiment: SRB in vitro cytotoxicity assay, A-2780 ovarian cancer cells; type: cell-based; settings: Homo sapiens, A2780, 48 h drug exposure, read-out: In vitro anticancer activity GI50, Ovarian A-2780
# From the text: as §1, §2
# [7] = tested on: MCF7; experiment: SRB in vitro cytotoxicity assay, MCF7 breast cancer cells; type: cell-based; settings: Homo sapiens, 48 h drug exposure, read-out: In vitro anticancer activity GI50, Breast MCF7
# From the text: as §1, §2
# [8] = tested on: Hop62; experiment: SRB in vitro cytotoxicity assay, Hop62 lung cancer cells; type: cell-based; settings: Homo sapiens, HOP-62, 48 h drug exposure, read-out: In vitro anticancer activity GI50, Lung Hop62
# From the text: as §1, §2
# [9] = tested on: Gurav; experiment: SRB in vitro cytotoxicity assay, Gurav oral cancer cells; type: cell-based; settings: Homo sapiens, 48 h drug exposure, read-out: In vitro anticancer activity GI50, Oral Gurav
# From the text: as §1, §2
SMILES,melting point,GI50 [1],GI50 [2],GI50 [3],GI50 [4],GI50 [5],GI50 [6],GI50 [7],GI50 [8],GI50 [9]
"COc1cc(C2C3=C(COC3=O)Nc3ccc4ncsc4c32)cc(OC)c1OC (stereo not drawn) [Compound 4s, 10-(3,4,5-trimethoxyphenyl)-6,7,9,10-tetrahydrofuro[3,4-b][1,3]thiazolo[5,4-f]quinolin-9-one]",309 to 310 °C,2100 nM,2400 nM,2100 nM,2500 nM,2500 nM,2300 nM,,,
"COc1ccc(C2C3=C(COC3=O)Nc3ccc4nc(S)[nH]c4c32)cc1O (stereo not drawn) [Compound 4x, 10-(3-hydroxy-4-methoxyphenyl)-2-sulfanyl-6,7,9,10-tetrahydro-1H-furo[3,4-b]imidazo[4,5-f]quinolin-9-one]",334 to 337 °C,,,,,,,2700 nM,,
"COc1cc(C2C3=C(COC3=O)Nc3ccc4cc(C)[nH]c4c32)ccc1F (stereo not drawn) [Compound 4l, 10-(4-fluoro-3-methoxyphenyl)-2-methyl-6,7,9,10-tetrahydro-1H-furo[3,4-b]pyrrolo[2,3-f]quinolin-9-one]",198 to 199 °C,,,,,2100 nM,2400 nM,2600 nM,2400 nM,2500 nM
"COc1ccc(C2C3=C(COC3=O)Nc3ccc4cc[nH]c4c32)cc1[N+](=O)[O-] (stereo not drawn) [Compound 4i, 10-(4-methoxy-3-nitrophenyl)-6,7,9,10-tetrahydro-1H-furo[3,4-b]pyrrolo[2,3-f]quinolin-9-one]",,,,,2400 nM,,,,,
"COc1cc(C2C3=C(COC3=O)Nc3ccc4nn[nH]c4c32)cc(OC)c1OC (stereo not drawn) [Compound 4y, 10-(3,4,5-trimethoxyphenyl)-6,7,9,10-tetrahydro-1H-furo[3,4-b][1,2,3]triazolo[4,5-f]quinolin-9-one]",324 to 325 °C,,,2900 nM,,,,,,
"COc1cc(C2C3=C(COC3=O)Nc3c2cc(OC)c(OC)c3OC)ccc1O (stereo not drawn) [Compound 4ae, 9-(4-hydroxy-3-methoxyphenyl)-5,6,7-trimethoxy-1,3,4,9-tetrahydrofuro[3,4-b]quinolin-1-one]",290 to 291 °C,,,,,,,2900 nM,,
"COc1ccc(C2C3=C(COC3=O)Nc3ccc4nn[nH]c4c32)c(F)c1 (stereo not drawn) [Compound 4z, 10-(2-fluoro-4-methoxyphenyl)-6,7,9,10-tetrahydro-1H-furo[3,4-b][1,2,3]triazolo[4,5-f]quinolin-9-one]",308 to 310 °C,,,,,,,< 100 nM,,
"COc1cc(C2C3=C(COC3=O)Nc3ccc4cc[nH]c4c32)ccc1O (stereo not drawn) [Compound 4f, 10-(4-hydroxy-3-methoxyphenyl)-6,7,9,10-tetrahydro-1H-furo[3,4-b]pyrrolo[2,3-f]quinolin-9-one]",301 to 303 °C,2000 nM,,,2500 nM,2400 nM,,2300 nM,,2600 nM
"COc1nc2c(c(OC)n1)C(c1ccc(O)c(OC)c1)C1=C(COC1=O)N2 (stereo not drawn) [Compound 4b, 5-(4-hydroxy-3-methoxyphenyl)-2,4-dimethoxy-5,6,8,9-tetrahydrofuro[3′,4′:5,6]pyrido[2,3-d]pyrimidin-6-one]",294 to 296 °C,,,,,,,,2700 nM,
"COc1cc(C2C3=C(COC3=O)Nc3ccc4cc[nH]c4c32)cc(OC)c1OC (stereo not drawn) [Compound 4e, 10-(3,4,5-trimethoxyphenyl)-6,7,9,10-tetrahydro-1H-furo[3,4-b]pyrrolo[2,3-f]quinolin-9-one]",299 to 301 °C,2800 nM,2400 nM,2000 nM,2300 nM,2800 nM,2700 nM,,,
"COc1ccc(-c2noc3c2C(c2cc(OC)c(OC)c(OC)c2)C2=C(COC2=O)N3)cc1 (stereo not drawn) [Compound 4aa, 3-(4-methoxyphenyl)-4-(3,4,5-trimethoxyphenyl)-4,5,7,8 tetrahydrofuro[3′,4′:5,6]pyrido[3,2-d]isoxazol-5-one]",218 to 219 °C,,,,,,,,2500 nM,
"COc1cc(C2C3=C(COC3=O)Nc3ccc4cn[nH]c4c32)ccc1F (stereo not drawn) [Compound 4q, 10-(4-fluoro-3-methoxyphenyl)-6,7,9,10-tetrahydro-1H-furo[3,4-b]pyrazolo[3,4-f]quinolin-9-one]",307 to 309 °C,,2300 nM,,,,,2700 nM,,2600 nM
"COc1ccc(C2C3=C(COC3=O)Nc3onc(-c4ccc(Cl)cc4)c32)cc1O (stereo not drawn) [Compound 4ad, 3-(4-chlorophenyl)-4-(3-hydroxy-4-methoxyphenyl)-4,5,7,8-tetrahydrofuro[3′,4′:5,6]pyrido[3,2-d]isoxazol-5-one]",245 to 246 °C,,,2700 nM,,,,,,

# Now from value to compound, other results behind:
melting point,SMILES,GI50 [1],GI50 [2],GI50 [3],GI50 [4],GI50 [5],GI50 [6],GI50 [7],GI50 [8],GI50 [9]
267 to 270 °C,"COc1nc2c(c(OC)n1)C(c1ccc(F)c(OC)c1)C1=C(COC1=O)N2 (stereo not drawn) [Compound 4d, 5-(4-fluoro-3-methoxyphenyl)-2,4-dimethoxy-5,6,8,9-tetrahydrofuro[3′,4′:5,6]pyrido[2,3-d]pyrimidin-6-one]",,2600 nM,2200 nM,,,,,,
205 to 207 °C,"COc1ccc(C2C3=C(COC3=O)Nc3ccc4cc(C)[nH]c4c32)c(F)c1 (stereo not drawn) [Compound 4m, 10-(2-fluoro-4-methoxyphenyl)-2-methyl-6,7,9,10-tetrahydro-1H-furo[3,4-b]pyrrolo[2,3-f]quinolin-9-one]",,,,,,,< 100 nM,,
284 to 285 °C,"COc1nc2c(c(OC)n1)C(c1ccc(OC)c(O)c1)C1=C(COC1=O)N2 (stereo not drawn) [Compound 4c, 5-(3-hydroxy-4-methoxyphenyl)-2,4-dimethoxy-5,6,8,9-tetrahydrofuro[3′,4′:5,6]pyrido[2,3-d]pyrimidin-6-one]",,,,,,,,2800 nM,
243 to 245 °C,"COc1ccc(C2C3=C(COC3=O)Nc3ccc4cn[nH]c4c32)cc1O (stereo not drawn) [Compound 4p, 10-(3-hydroxy-4-methoxyphenyl)-6,7,9,10-tetrahydro-1H-furo[3,4-b]pyrazolo[3,4-f]quinolin-9-one]",,,,2600 nM,,,,2600 nM,
297 to 299 °C,"COc1ccc(C2C3=C(COC3=O)Nc3ccc4cc[nH]c4c32)cc1O (stereo not drawn) [Compound 4g, 10-(3-hydroxy-4-methoxyphenyl)-6,7,9,10-tetrahydro-1H-furo[3,4-b]pyrrolo[2,3-f]quinolin-9-one]",2800 nM,2300 nM,2200 nM,190 nM,,2700 nM,2900 nM,2200 nM,2300 nM
170 to 172 °C,"COc1cc(C2C3=C(COC3=O)Nc3ccc4cc[nH]c4c32)ccc1F (stereo not drawn) [Compound 4h, 10-(4-fluoro-3-methoxyphenyl)-6,7,9,10-tetrahydro-1H-furo[3,4-b]pyrrolo[2,3-f]quinolin-9-one]",2500 nM,2200 nM,170 nM,,2600 nM,2300 nM,2100 nM,2600 nM,2500 nM
190 to 191 °C,"COc1cc(C2C3=C(COC3=O)Nc3ccc4nc(C)sc4c32)ccc1[N+](=O)[O-] (stereo not drawn) [Compound 4w, 10-(3-methoxy-4-nitrophenyl)-2-methyl-6,7,9,10-tetrahydrofuro[3,4-b][1,3]thiazolo[5,4-f]quinolin-9-one]",,,,,,,150 nM,,
